# Results published in patent US12042501B2, “Metal protoporphyrin for treatment of BK virus” (Renibus Therapeutics, Inc., priority 2021, dated 2024).
# Entries after “also recorded” stand apart in the source; their conditions may differ. Where two headings read alike, the source gives them in different places.
# Legend:
# CMV = CMV primary antiviral assay; type: cell-based
# HPV (HPV11) = test: HPV primary antiviral assay; type: cell-based, Human Papilloma Virus
# enveloped viruses = conditions: in vitro; Neris et al. 2018; cited from earlier work
# HFF cells = test: Cellular viability by CellTiter-Glo in the BK virus assays
# JC virus [1] = test: JC virus neutralization assay (pre-incubation of virus with RBT-9) in COS7 cells; type: cell-based, 1-4 strain
# Description: The present inventors used assays to determine the antiviral activity against various pathogens, including particularly the BK virus. Two conditions were investigated: 1) standard qPCR-based antiviral assay—treatment with SnPP at the time of infection and 2) viral neutralization—pre-incubation of SnPP with BK virus for 1 hour prior to infection. SnPP was tested at concentrations up to 100 μM. Human foreskin fibroblast (HFF) cells were used as the host cell. Viral activity was assessed by real time qPCR and cellular viability was determined by CellTiter-Glo.
# (§1) Primary evaluation of compounds against JC virus were also performed by methods similar to those for BK virus primary assays but were done in COS7 cells and utilized the 1-4 strain of JCV in COS7 cells. Viral DNA was quantified using primers 5′-[…]-3′ and 5′-[…]-3′ and probe 5′-6-FAM-[…]-TAMRA-3 together with the plasmid pMP508 to provide a standard curve for absolute quantification. Secondary assays against JCV were also performed in COS7 cells by methods similar to those for BK virus to identify compounds that inhibited adsorption or penetration of the virus. • EC50—compound concentration that reduces viral replication by 50% • EC90—compound concentration that reduces viral replication by 90% • CC50—compound concentration that reduces cell viability by 50% • SI50—CC50/EC50 • SI90—CC50/EC90
# [2] = system: non-enveloped polio virus; conditions: in vitro; Neris et al. 2018; cited from earlier work
# BK Virus [3] = test: BK virus standard qPCR-based antiviral assay (treatment with SnPP at the time of infection; primary and secondary); type: cell-based, strain Gardner; conditions: for Activity: BK; for SI50: CC50/EC50; for SI90: CC50/EC90
# [4] = system: acute kidney injury (AKI); conditions: animals; given prior to insult; cited from earlier work
# BK Virus [5] = test: BK virus viral neutralization assay (pre-incubation of SnPP with BK virus for 1 hour prior to infection), qPCR; type: cell-based, strain Gardner; conditions: for SI50 / SI90 / EC50 / EC90: experiment 21-bk2-004; for SI50 / SI90: Secondary (Neutralization); for SI50: CC50/EC50; for SI90: CC50/EC90; for EC50 / EC90: Secondary (Neutralization, pre-incubation of virus), BK Virus Gardner in HFF, qPCR (DNA)
# Adenovirus (Adv) = test: AdV primary antiviral assay; type: cell-based
# JC virus [6] = test: JC virus qPCR antiviral assay in COS7 cells (primary/standard); type: cell-based, 1-4 strain; conditions: for Activity / EC50 / EC90 / SI50: JC; for Activity: Non-enveloped; for SI50: CC50/EC50
# Description: as §1
# [7] = in vivo
# [8] = Cellular viability by CellTiter-Glo in the BK virus assays; conditions: human
# [9] = experiment 21-bk2-003, Primary (Standard), HFF, CellTiter-Glo
# [10] = experiment 21-bk2-004, Secondary (Neutralization), HFF, CellTiter-Glo
# [11] = experiment 21-bk2-001, Secondary
# [12] = experiment 21-bk2-003, Primary (Standard)
structure (smiles),measurement,setting,value
"C=CC1=C(C)c2cc3[n-]c(cc4[n-]c(cc5nc(cc1n2)C(C)=C5C=C)c(C)c4CCC(=O)O)c(CCC(=O)O)c3C.[Sn+2] [SnPP, Stannous protoporphyrin]",EC50,CMV,> 6 µM
same,EC90,CMV,> 6 µM
same,SI50,CMV; CC50/EC50,<3
same,Activity,CMV; Enveloped,NONE
same,inactivating activity against HPV (in words),HPV (HPV11),not found; also recorded: Minimal to no activity
same,Activity,"HPV (HPV11); HPV (HPV11), Non-enveloped, Primary",MINIMAL
same,EC50,"HPV (HPV11); HPV (HPV11), Primary",23.4 µM
same,EC90,"HPV (HPV11); HPV (HPV11), Primary",> 30 µM
same,SI50,"HPV (HPV11); HPV (HPV11), Primary, CC50/EC50",5
same,antiviral activity against enveloped viruses,enveloped viruses,broad antiviral activity
same,"concentration not adversely affecting host cell viability, times higher than effective concentration","HFF cells; CC50 average versus effective concentration, BK virus assays",16.5 times
same,CC50,"HFF cells; experiment 20-bk-007, Primary, HFF, CellTiter-Glo",62.3 µM
same,CC50,"HFF cells; experiment 21-bk2-001, Secondary, HFF, CellTiter-Glo",95.8 µM
same,CC50,HFF cells; [9],82.7 µM
same,CC50,HFF cells; [10],82.7 µM
same,CC50,"HFF cells; read-out: 50% cytotoxic concentration (CC50), average, averaged in the in vitro studies, host cell viability",89.2 µM
same,Activity,"JC virus [1]; Non-enveloped, Secondary (Neutralization, pre-incubation of virus with RBT-9)",MINIMAL
same,EC50,JC virus [1]; Secondary (Neutralization),18.9 µM
same,EC90,JC virus [1]; Secondary (Neutralization),> 20 µM
same,SI50,"JC virus [1]; Secondary (Neutralization), CC50/EC50",4
same,activity against polio virus,[2],no activity
same,Activity,BK Virus [3]; Primary (20-bk-007),MODERATE
same,Activity,BK Virus [3]; Primary (Standard) (21-bk2-003),MODERATE
same,Activity,BK Virus [3]; Secondary (21-bk2-001),HIGH
same,EC50,"BK Virus [3]; averaged in 2 independently run standard qPCR assays, BK virus, read-out: 50% effective concentration (EC50), average",5.5 µM
same,antiviral / inactivating activity against BK virus (in words),BK Virus [3]; both treatment conditions,broad inactivating activity; also recorded: moderate antiviral activity; also recorded: most significant activity
same,EC90,"BK Virus [3]; experiment 20-bk-007, Primary, BK Virus Gardner in HFF, qPCR (DNA)",26.6 µM
same,EC50,"BK Virus [3]; experiment 20-bk-007, Primary, BK Virus Gardner in HFF, qPCR (DNA), read-out: EC50",8.08 µM
same,SI50,"BK Virus [3]; experiment 20-bk-007, Primary",8
same,SI90,"BK Virus [3]; experiment 20-bk-007, Primary",2
same,EC90,"BK Virus [3]; experiment 21-bk2-001, Secondary, BK Virus Gardner in HFF, qPCR (DNA)",30.1 µM
same,EC50,"BK Virus [3]; experiment 21-bk2-001, Secondary, BK Virus Gardner in HFF, qPCR (DNA), read-out: EC50",2.4 µM
same,SI50,BK Virus [3]; [11],40
same,SI90,BK Virus [3]; [11],3
same,EC90,"BK Virus [3]; experiment 21-bk2-003, Primary (Standard), BK Virus Gardner in HFF, qPCR (DNA)",81.8 µM
same,EC50,"BK Virus [3]; experiment 21-bk2-003, Primary (Standard), BK Virus Gardner in HFF, qPCR (DNA), read-out: EC50",8.6 µM
same,SI50,BK Virus [3]; [12],10
same,SI90,BK Virus [3]; [12],1
same,protection against acute kidney injury (AKI),[4],protective
same,Activity,"BK Virus [5]; BK, Secondary (Neutralization) (21-bk2-004)",MODERATE
same,SI50,BK Virus [5],15
same,SI90,BK Virus [5],3
same,EC50,BK Virus [5],5.4 µM
same,EC90,BK Virus [5],32.9 µM
same,inactivating activity against Adenovirus (in words),Adenovirus (Adv),not found; also recorded: Minimal to no activity
same,Activity,"Adenovirus (Adv); AdV, Non-enveloped, Primary",NONE
same,EC50,"Adenovirus (Adv); AdV, Primary",> 30 µM
same,EC90,"Adenovirus (Adv); AdV, Primary",> 30 µM
same,SI50,"Adenovirus (Adv); AdV, Primary, CC50/EC50",<1
same,inactivating activity against JC virus (in words),JC virus [6],moderate inactivating activity
same,Activity,JC virus [6]; Primary,MODERATE
same,Activity,JC virus [6]; Primary (Standard),MODERATE
same,EC50,JC virus [6]; Primary,5.38 µM
same,EC90,JC virus [6]; Primary,> 30 µM
same,EC50,JC virus [6]; Primary (Standard),9.93 µM
same,EC90,JC virus [6]; Primary (Standard),63.1 µM
same,SI50,JC virus [6]; Primary (Standard),7
same,SI50,JC virus [6]; Primary,19
same,tolerability,[7],well tolerated
"C=Cc1c(C)c2cc3[nH]c(cc4nc(cc5nc(cc1[nH]2)C(C)=C5CCC(=O)[O-])C(CCC(=O)[O-])=C4C)c(C)c3C=C.[Co+2] [Cobalt protoporphyrin, Co-protoporphyrin IX, reference compound]",antiviral activity against enveloped viruses,enveloped viruses,broad antiviral activity
same,activity against polio virus,[2],no activity
"Nc1ccn(C[C@@H](CO)OCP(=O)(O)O)c(=O)n1 [Cidofovir, reference compound]",CC50,[8],> 100 µM
same,CC50,"[8]; CC50, experiment 20-bk-007, Primary, HFF, CellTiter-Glo",> 150 µM
same,CC50,HFF cells; [9],> 100 µM
same,CC50,HFF cells; [10],> 100 µM
same,EC90,"BK Virus [3]; Betapolyomavirus hominis, experiment 20-bk-007, Primary, BK Virus Gardner in HFF, qPCR (DNA)",117 µM
same,EC50,"BK Virus [3]; Betapolyomavirus hominis, experiment 20-bk-007, Primary, BK Virus Gardner in HFF, qPCR (DNA), read-out: EC50",6.28 µM
same,EC90,"BK Virus [3]; Betapolyomavirus hominis, experiment 21-bk2-001, Secondary, BK Virus Gardner in HFF, qPCR (DNA)",10.7 µM
same,EC50,"BK Virus [3]; Betapolyomavirus hominis, experiment 21-bk2-001, Secondary, BK Virus Gardner in HFF, qPCR (DNA), read-out: EC50",0.72 µM
same,EC90,"BK Virus [3]; Betapolyomavirus hominis, experiment 21-bk2-003, Primary (Standard), BK Virus Gardner in HFF, qPCR (DNA)",17.9 µM
same,EC50,"BK Virus [3]; Betapolyomavirus hominis, experiment 21-bk2-003, Primary (Standard), BK Virus Gardner in HFF, qPCR (DNA), read-out: EC50",0.13 µM
same,SI50,"BK Virus [3]; experiment 20-bk-007, Primary",>24
same,SI90,"BK Virus [3]; experiment 20-bk-007, Primary",>1
same,SI50,BK Virus [3]; [11],>139
same,SI90,BK Virus [3]; [11],>9
same,SI50,BK Virus [3]; [12],>769
same,SI90,BK Virus [3]; [12],>6
same,EC50,BK Virus [5]; Betapolyomavirus hominis,> 100 µM
same,EC90,BK Virus [5]; Betapolyomavirus hominis,> 100 µM
same,SI50,BK Virus [5],1
same,SI90,BK Virus [5],1
